Biological target: mTOR (Homo sapiens, UniProt P42345)
Assay: in vitro kinase activity assay at ATP near Km; also anti-Raptor immunoprecipitated mTORC1 kinase assay (HepG2/HUH-7) with GST-S6K1 substrate
Type: biochemical

## COc1ccc(C=NNC(=O)c2cc3cc(Cl)ccc3[nH]2)c(OC)c1 [ZJQ-24, 5-chloro-N’-(2,4-dimethoxybenzylidene)−1H-indole-2-carbohydrazide]
  EC50: 40.6 µM

Source: paper PMC7595202, “Indole hydrazide compound ZJQ-24 inhibits angiogenesis and induces apoptosis cell death through abrogation of AKT/mTOR pathway in hepatocellular carcinoma” (Cell Death & Disease, 2020)
